According to ChEMBL document CHEMBL5120901, “Batatasin III, a Constituent of Dendrobium scabrilingue, Improves Murine Pain-like Behaviors with a Favorable CNS Safety Profile” (J Nat Prod, 2022):
The source made the active and inactive calls. The rule behind the calls is not given here.

What was measured:
Mus musculus [1] = assay: (§1) Anti-inflammatory activity against LPS-induced inflammatory pain-like behaviour ICR mouse model assessed as improvement in locomotor activity by measuring increased mobile behaviours at 10 mg/kg, ip treated with LPS for 2 hrs followed by drug administration for 1 hr and measured for 5 mins by LABORAS analysis; assay type: functional, organism-based; settings: time 65.0 min
Mus musculus [2] = assay: as §1, with “increase in animal's movement speed in LABORAS arena” for “increased mobile behaviours”; assay type: functional, organism-based; settings: time 65.0 min
Mus musculus [3] = assay: as §1, with “decrease in immobility behaviour” for “increased mobile behaviours”; assay type: functional, organism-based; settings: time 65.0 min
Mus musculus [4] = assay: as §1, with “increase in distance travelled in LABORAS arena” for “increased mobile behaviours”; assay type: functional, organism-based; settings: time 65.0 min
Mus musculus [5] = assay: Anti-inflammatory activity against LPS-induced inflammatory pain-like behaviour ICR mouse model assessed as reduction in IL-6 levels in plasma at 10 mg/kg, ip treated with LPS for 2 hrs followed by drug administration for 1 hr by ELISA; assay type: functional, organism-based
Mus musculus [6] = assay: Anti-inflammatory activity against LPS-induced inflammatory pain-like behaviour ICR mouse model assessed as reduction in TNF-alpha levels in plasma at 10 mg/kg, ip treated with LPS for 2 hrs followed by drug administration for 1 hr by ELISA; assay type: functional, organism-based
Mus musculus [7] = assay: Analgesic activity against formalin-induced inflammatory pain-like behaviour ICR mouse model assessed as inhibition of hind paw licking behaviour at 10 mg/kg, ip administered 60 mins prior to formalin challenge and measured after 10 to 40 mins by formalin test; assay type: functional; settings: time 70-100 min
[8] = CNS toxicity in naive ICR mouse assessed as reduction in spontaneous locomotor activity by measuring reduction in rearing behaviour at 5 mg/kg, ip and measured for 30 mins by LABORAS automated behavioral analysis; assay type: organism-based; settings: in vivo, 0.5 h
[9] = CNS toxicity in naive ICR mouse assessed as reduction in spontaneous locomotor activity at 5 mg/kg, ip and measured for 2 hrs by LABORAS automated behavioral analysis; assay type: organism-based; settings: in vivo
[10] = CNS toxicity in naive ICR mouse assessed as reduction in spontaneous locomotor activity by measuring increase in immobility behaviour at 5 mg/kg, ip and measured for 2 hrs by LABORAS automated behavioral analysis; assay type: organism-based; settings: in vivo
[11] = CNS toxicity in naive ICR mouse assessed as reduction in spontaneous locomotor activity by measuring reduction in animal's movement speed in arena at 5 mg/kg, ip and measured for 30 mins by LABORAS automated behavioral analysis; assay type: organism-based; settings: in vivo, 0.5 h
[12] = CNS toxicity in naive ICR mouse assessed as reduction in spontaneous locomotor activity by measuring increase in immobility behaviour at 5 mg/kg, ip and measured for 30 mins by LABORAS automated behavioral analysis; assay type: organism-based; settings: in vivo, 0.5 h
[13] = CNS toxicity in naive ICR mouse assessed as reduction in spontaneous locomotor activity by measuring reduction in distance travelled in arena at 5 mg/kg, ip and measured for 2 hrs by LABORAS automated behavioral analysis; assay type: organism-based; settings: in vivo
[14] = CNS toxicity in naive ICR mouse assessed as reduction in spontaneous locomotor activity by measuring reduction in climbing behaviour at 5 mg/kg, ip and measured for 2 hrs by LABORAS automated behavioral analysis; assay type: organism-based; settings: in vivo
[15] = CNS toxicity in naive ICR mouse assessed as reduction in spontaneous locomotor activity by measuring reduction in rearing behaviour at 5 mg/kg, ip and measured for 2 hrs by LABORAS automated behavioral analysis; assay type: organism-based; settings: in vivo
[16] = CNS toxicity in naive ICR mouse assessed as reduction in spontaneous locomotor activity at 5 mg/kg, ip and measured for 30 mins by LABORAS automated behavioral analysis; assay type: organism-based; settings: in vivo, 0.5 h
[17] = CNS toxicity in naive ICR mouse assessed as reduction in spontaneous locomotor activity by measuring reduction in distance travelled in arena at 5 mg/kg, ip and measured for 30 mins by LABORAS automated behavioral analysis; assay type: organism-based; settings: in vivo, 0.5 h
[18] = CNS toxicity in naive ICR mouse assessed as reduction in spontaneous locomotor activity by measuring reduction in animal's movement speed in arena at 5 mg/kg, ip and measured for 2 hrs by LABORAS automated behavioral analysis; assay type: organism-based; settings: in vivo
[19] = CNS toxicity in naive ICR mouse assessed as reduction in spontaneous locomotor activity by measuring reduction in climbing behaviour at 5 mg/kg, ip and measured for 30 mins by LABORAS automated behavioral analysis; assay type: organism-based; settings: in vivo, 0.5 h
[20] = CNS toxicity in naive ICR mouse assessed as motor coordination at 5 mg/kg, ip measured after 240 mins by rotarod test; assay type: organism-based; settings: in vivo, 4 h
[21] = CNS toxicity in naive ICR mouse assessed as reduction in rotarod latency time at 5 mg/kg, ip measured at <240 mins by rotarod test; assay type: organism-based; settings: in vivo, 4 h
BV-2 [22] = assay: Anti-inflammatory activity in […] cells assessed as inhibition of LPS-induced NO production at 50 uM pretreated with compound for 1 hr followed by coincubation with LPS for 24 hrs by Griess reagent based analysis; assay type: functional, cell-based; settings: Mus musculus, time 25.0 hrs
BV-2 [23] = assay: Anti-inflammartory activity against LPS-activated […] cells assessed as reduction in IL-6 levels at 50 uM pretreated with compound for 1 hr followed by co-incubation with LPS for 24 hrs by ELISA; assay type: functional, cell-based; settings: Mus musculus, time 25.0 hrs
BV-2 [24] = assay: Anti-inflammartory activity against LPS-activated […] cells assessed as reduction in TNF-alpha levels at 50 uM pretreated with compound for 1 hr followed by co-incubation with LPS for 24 hrs by ELISA; assay type: functional, cell-based; settings: Mus musculus, time 25.0 hrs

## COc1ccc2c(c1)c(CC(=O)O)c(C)n2C(=O)c1ccc(Cl)cc1 [INDOMETHACIN]
Mus musculus [1]
  Activity: Active
Mus musculus [2]
  Activity: Active
Mus musculus [3]
  Activity: Active
Mus musculus [4]
  Activity: Active
Mus musculus [5]
  Activity: Active
Mus musculus [6]
  Activity: Active
Mus musculus [7]
  inhibition in vivo at 10 mg/kg: 71.6%

## CN(C)CCCN1c2ccccc2Sc2ccc(Cl)cc21 [CHLORPROMAZINE]
[8]
  Activity: Toxic
[9]
  Activity: Toxic
[10]
  Activity: Toxic
[11]
  Activity: Toxic
[12]
  Activity: Toxic
[13]
  Activity: Toxic
[14]
  Activity: Toxic
[15]
  Activity: Toxic
[16]
  Activity: Toxic
[17]
  Activity: Toxic
[18]
  Activity: Toxic
[19]
  Activity: Toxic
[20]
  Activity: Non-Toxic
[21]
  Activity: Toxic

## CN(C)c1ccc(O)c2c1C[C@H]1C[C@H]3[C@H](N(C)C)C(O)=C(C(N)=O)C(=O)[C@@]3(O)C(O)=C1C2=O
BV-2 [22]
  Activity: Active
BV-2 [23]
  Activity: Active
BV-2 [24]
  Activity: Active
